Data on one molecule can be found in publication PMC7500466, “Inhibition of JNK-Mediated Autophagy Promotes Proscillaridin A- Induced Apoptosis via ROS Generation, Intracellular Ca^+2 Oscillation and Inhibiting STAT3 Signaling in Breast Cancer Cells” (Frontiers in Pharmacology, 2020).

The assay concerns the target T1, STAT3 (signal transducer and activator of transcription 3) (Homo sapiens, UniProt P40763).
T1 construct: Recombinant human STAT3 protein
Description: SPR, STAT3 immobilized on C5 sensor chip, PSD-A […]. It is filed as binding. A general note: In SPR one partner is held on a chip, and binding of the other changes the refractive index at the surface.

T1 sequence (P40763 2-770): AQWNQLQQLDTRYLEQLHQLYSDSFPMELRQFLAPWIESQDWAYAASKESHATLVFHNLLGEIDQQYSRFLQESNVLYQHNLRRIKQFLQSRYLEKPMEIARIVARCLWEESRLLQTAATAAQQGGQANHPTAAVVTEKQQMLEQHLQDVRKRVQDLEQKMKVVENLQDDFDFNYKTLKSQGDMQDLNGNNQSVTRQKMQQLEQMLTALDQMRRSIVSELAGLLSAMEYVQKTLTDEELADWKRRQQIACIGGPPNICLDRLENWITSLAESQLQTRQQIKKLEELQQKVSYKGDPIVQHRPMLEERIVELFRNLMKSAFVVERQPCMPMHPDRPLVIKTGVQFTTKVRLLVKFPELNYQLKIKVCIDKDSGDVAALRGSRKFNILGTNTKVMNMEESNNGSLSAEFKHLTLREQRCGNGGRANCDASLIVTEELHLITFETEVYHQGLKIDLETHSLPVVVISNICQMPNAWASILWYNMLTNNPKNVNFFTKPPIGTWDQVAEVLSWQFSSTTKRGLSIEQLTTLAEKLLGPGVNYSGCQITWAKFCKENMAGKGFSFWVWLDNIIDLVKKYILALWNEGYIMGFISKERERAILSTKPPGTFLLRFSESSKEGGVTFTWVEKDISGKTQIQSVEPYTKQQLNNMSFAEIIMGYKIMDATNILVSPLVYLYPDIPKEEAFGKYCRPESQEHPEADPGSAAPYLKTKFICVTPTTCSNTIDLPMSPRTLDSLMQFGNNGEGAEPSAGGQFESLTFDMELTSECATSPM

One may read the Kd as the equilibrium constant for the complex coming apart. Read a low Kd as a tighter complex. In turn, `C[C@@H]1O[C@@H](O[C@@H]2C=C3CC[C@@H]4[C@H](CC[C@]5(C)[C@@H](c6ccc(=O)oc6)CC[C@]45O)[C@@]3(C)CC2)[C@H](O)[C@H](O)[C@H]1O` [PSD-A, Proscillaridin A] registered an equilibrium dissociation constant (Kd) of about 160 nM.
